Laboratory results taken from paper PMC10889811, “Potential Candidate Molecule of Photosystem II Inhibitor Herbicide—Brassicanate A Sulfoxide” (International Journal of Molecular Sciences, 2024).

Target: T1, photosystem II D1 protein (PSBD1; psbA)
T1 construct: gene psbA1; psbA cloned BamHI/HindIII into pFastBac1; expressed in Sf9 insect cells; His-tagged (kept, captured on NTA sensor), Ni column from sonicated pellet supernatant; recombinant plasmid printed as 5238 bp, small for a full-length psbA insert; isolated D1 without other PSII subunits or cofactors; PDB 7ZCL is the docking model only
Test: biolayer interferometry (Octet R8, NTA sensor)
Assay type: binding
Settings: PBS, 5% DMSO; analyte 1 mM; His-tagged protein immobilised on NTA sensor; read-out: affinity constant

Structure (SMILES): COC(=O)c1c([S+](C)[O-])[nH]c2ccccc12 (stereo not shown) [brassicanate A sulfoxide]
- Kd: 2.69 mM
